{
  "source": "patent US11702440B2",
  "about": "“Pharmaceutical polymorphs of Molnupiravir” (OPTIMUS DRUGS (P) LTD, priority 2021, dated 2023)",
  "key": {"[1]": {"assay": "In-vitro dissolution study of Molnupiravir Capsules", "format": "physicochemical", "conditions": "900 ml 0.1 N HCl, paddle 50 RPM", "description": "Dissolution study of test product Molnupiravir Capsules 200 mg, 400 mg 800 mg was performed in order to understand % dissolution in release dissolution media. The dissolution media used for the test is 900 ml of 0.1 NHCl at 50 RPM with paddle."}, "[2]": {"assay": "First-in-human phase 1 single and multiple ascending dose pharmacokinetics in healthy volunteers", "format": "in vivo", "description": "Single and multiple doses of Molnupiravir were evaluated in this first-in-human, phase 1, […] randomized, double-blind, placebo-controlled study in healthy volunteers, which included […] evaluation of the effect of food on pharmacokinetics. Eligible subjects were randomized in a 3:1 ratio to either study drug or placebo in the single- and multiple-ascending-dose parts of the study. Each cohort comprised 8 subjects, with single oral doses of 50 to 1600 mg administered in the single-ascending-dose part and twice-daily (BID) […] doses of 50 to 800 mg administered for 5.5 days in the multiple-ascending-dose part. Subjects were followed for 14 days following completion of dosing for assessments of safety, tolerability, and pharmacokinetics. Subjects in the food-effect evaluation were randomized in a 1:1 ratio to either 200 mg Molnupiravir in the fed state followed by 200 mg Molnupiravir in the fasted state, or vice versa, with a 14-day washout period between doses. A capsule formulation was used in all parts of the study, with the exception of single ascending doses ≤800 mg, where an oral solution formulation was used."}, "[3]": {"test_system": "coronaviruses including SARS, MERS and SARS-CoV-2", "conditions": "cited from earlier work"}, "SARS-CoV-2": {"test_system": "SARS-CoV-2", "conditions": "found in March 2020; cited from earlier work"}},
  "data": [
    {"smiles": "CC(C)C(=O)OC[C@H]1O[C@@H](n2ccc(NO)nc2=O)[C@H](O)[C@@H]1O", "note": "[Molnupiravir]", "values": [
      {"measurement": "% Drug release of Molnupiravir", "setting": "[1]; 200 mg capsules, 5 min", "result": 85, "unit": "%"},
      {"measurement": "% Drug release of Molnupiravir", "setting": "[1]; 200 mg capsules, 10 min", "result": 97, "unit": "%"},
      {"measurement": "% Drug release of Molnupiravir", "setting": "[1]; 200 mg capsules, 15 min", "result": 97, "unit": "%"},
      {"measurement": "% Drug release of Molnupiravir", "setting": "[1]; 200 mg capsules, 20 min", "result": 102, "unit": "%"},
      {"measurement": "% Drug release of Molnupiravir", "setting": "[1]; 200 mg capsules, 30 min", "result": 103, "unit": "%"},
      {"measurement": "% Drug release of Molnupiravir", "setting": "[1]; 200 mg capsules, 45 min", "result": 102, "unit": "%"},
      {"measurement": "% Drug release of Molnupiravir", "setting": "[1]; 400 mg capsules, 5 min", "result": 86, "unit": "%"},
      {"measurement": "% Drug release of Molnupiravir", "setting": "[1]; 400 mg capsules, 10 min", "result": 90, "unit": "%"},
      {"measurement": "% Drug release of Molnupiravir", "setting": "[1]; 400 mg capsules, 15 min", "result": 93, "unit": "%"},
      {"measurement": "% Drug release of Molnupiravir", "setting": "[1]; 400 mg capsules, 20 min", "result": 97, "unit": "%"},
      {"measurement": "% Drug release of Molnupiravir", "setting": "[1]; 400 mg capsules, 30 min", "result": 97, "unit": "%"},
      {"measurement": "% Drug release of Molnupiravir", "setting": "[1]; 400 mg capsules, 45 min", "result": 97, "unit": "%"},
      {"measurement": "% Drug release of Molnupiravir", "setting": "[1]; 800 mg capsules, 5 min", "result": 84, "unit": "%"},
      {"measurement": "% Drug release of Molnupiravir", "setting": "[1]; 800 mg capsules, 10 min", "result": 95, "unit": "%"},
      {"measurement": "% Drug release of Molnupiravir", "setting": "[1]; 800 mg capsules, 15 min", "result": 97, "unit": "%"},
      {"measurement": "% Drug release of Molnupiravir", "setting": "[1]; 800 mg capsules, 20 min", "result": 99, "unit": "%"},
      {"measurement": "% Drug release of Molnupiravir", "setting": "[1]; 800 mg capsules, 30 min", "result": 101, "unit": "%"},
      {"measurement": "% Drug release of Molnupiravir", "setting": "[1]; 800 mg capsules, 45 min", "result": 101, "unit": "%"},
      {"measurement": "mean AUCinf increase with dose", "setting": "[2]; Day 1, power model, oral, lower bound of 90% CI slightly above unity", "result": "approximately dose-proportional"},
      {"measurement": "mean Cmax increase with dose", "setting": "[2]; Day 1, power model, oral, upper bound of 90% CI slightly below unity", "result": "approximately dose-proportional"},
      {"measurement": "mean Cmax increase with dose", "setting": "[2]; Day 6, BID oral dosing, 90% CI containing unity", "result": "dose proportional"},
      {"measurement": "mean AUCτ increase with dose", "setting": "[2]; Day 6, BID oral dosing, lower bound of 90% CI slightly above unity", "result": "approximately dose-proportional"},
      {"measurement": "activity against coronaviruses", "setting": "[3]", "result": "Activity has also been demonstrated"},
      {"measurement": "activity against SARS-CoV-2", "setting": "SARS-CoV-2", "result": "active"}
    ]}
  ]
}
